# Data: patent EP1232756A1, “DRUGS, DRINKS OR FOODS” (Takara Shuzo Co, Ltd., priority 1999, dated 2001)
# Key:
# female SD rat [1] = experiment: Anti-estrogenic activity of n-octyl gallate or n-cetyl gallate against subcutaneously administered BisA, rat uterine weight (Example 11); type: in vivo; conditions: for Uterine weight: 3 days; for Ratio: vs control (100%)
# Protocol: A 17-days old female SD rat (Japan SLC) was purchased together with its mother, weaned at 20 days of age, and subjected to experiments from the next day. n-Octyl gallate or n-cetyl gallate (both from Tokyo Kasei Kogyo) was dissolved in a small volume of ethanol. Peanut oil was added thereto to result in a final ethanol concentration of 5%. The resulting mixture was orally administered to the 21-days old female SD rat for three successive days. The uterine removed on the day after the last administration day was weighed. Peanut oil containing 5% ethanol was used for a vehicle administration group. BisA was dissolved in a small volume of ethanol. Peanut oil was added thereto to result in a final ethanol concentration of 5%. The mixture was subcutaneously administered.
# female SD rat [2] = experiment: Anti-estrogenic activity of n-octyl gallate against NP, rat uterine weight (Example 10); type: in vivo; conditions: for Uterine weight: 1.5 hours before NP, 3 days; for Ratio: vs control (100%)
# Protocol: (§1) A 16-days old female SD rat (Japan SLC) was purchased together with its mother, weaned at 19 days of age, and subjected to experiments from the next day. n-Octyl gallate (Tokyo Kasei Kogyo) was dissolved in a small volume of ethanol. Peanut oil was added thereto to result in a final ethanol concentration of 5%. The resulting mixture was orally administered to the 20-days old female SD rat for three successive days. The uterine removed on the day after the last administration day was weighed. Peanut oil containing 5% ethanol was used for a vehicle administration group. NP weighed such that it would be administered at 50 mg/kg was diluted by adding peanut oil. It was orally administered 1.5 hours after the administration of n-octyl gallate.
# [3] = biological target: T1, ER(α) (estrogen receptor α) (Homo sapiens, UniProt P03372); experiment: Binding to estrogen receptor, fluorescence polarization competition (FP Screen-for-Competitors kit, ER-α) (Example 7); conditions: concentration inhibiting 50% of the binding of the ES1-ER(α) complex by competing with ES1; 1 hour at room temperature
# T1 construct: purchased PanVera V2577
# T1 sequence (P03372 1-595): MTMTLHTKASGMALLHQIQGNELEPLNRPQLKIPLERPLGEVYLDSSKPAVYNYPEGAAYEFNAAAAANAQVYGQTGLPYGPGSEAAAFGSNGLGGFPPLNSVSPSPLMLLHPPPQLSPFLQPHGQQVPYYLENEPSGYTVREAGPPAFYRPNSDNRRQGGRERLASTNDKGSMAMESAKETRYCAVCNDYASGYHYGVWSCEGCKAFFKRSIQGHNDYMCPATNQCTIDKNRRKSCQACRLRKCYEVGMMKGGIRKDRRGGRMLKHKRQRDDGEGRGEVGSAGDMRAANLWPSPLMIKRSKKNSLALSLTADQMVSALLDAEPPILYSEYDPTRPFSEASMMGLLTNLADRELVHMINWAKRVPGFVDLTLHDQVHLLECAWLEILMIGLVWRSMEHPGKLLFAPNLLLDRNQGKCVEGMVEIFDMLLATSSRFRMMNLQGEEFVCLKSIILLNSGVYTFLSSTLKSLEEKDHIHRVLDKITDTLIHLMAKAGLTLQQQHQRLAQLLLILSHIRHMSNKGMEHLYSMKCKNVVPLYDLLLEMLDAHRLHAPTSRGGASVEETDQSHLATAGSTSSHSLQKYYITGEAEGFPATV
# Protocol: Bindings of various gallic acid derivatives to estrogen receptor were tested using FP Screen-for-Competitors kit, ER-α, high sensitivity kit (V2577: PanVera). The tests were carried out basically according to the procedure as described in the manual attached to the kit. One of various gallic acid derivatives (n-octyl gallate (gallic acid n-octyl ester), n-dodecyl gallate (gallic acid n-dodecyl ester) and n-cetyl gallate (gallic acid n-hexadecyl ester)) was dissolved in DMSO and serially diluted to prepare diluted samples (0.5 M - 0.0000000005 M). 49 µL of Screening buffer attached to the kit was added to 1 µL of one of the diluted samples and stirred thoroughly. 50 µL of 10 nM-15 nM:ES1-ER(α) complex (a complex of ES1 (a fluorescent ligand that binds to ER) and ER(α) (estrogen receptor α)) attached to the kit was added thereto, resulting in the total volume of 100 µL. After allowing to stand for 1 hour at room temperature, fluorescence polarization was measured at an excitation wavelength of 360 nm and an emission wavelength of 535 nm using Full-Range BEACON 2000 (PanVera).
# female SD rat [4] = experiment: Anti-estrogenic activity of n-octyl gallate against BisA, rat uterine weight (Example 9); type: in vivo; conditions: for Uterine weight: 1.5 hours before BisA, 3 days; for Ratio: vs control (100%)
# Protocol: as §1, with “BisA” for “NP weighed such that it would be administered at 50 mg/kg”, “dissolved in a small volume of ethanol. Peanut oil was added thereto to result in a final ethanol concentration of 5%.” for “diluted by adding peanut oil.”
# [5] = tested on: human breast cancer-derived MCF-7 cells; experiment: E-SCREEN assay, proliferation of cultured cells, MTT method (Example 8); type: cell-based
# Protocol: A test for proliferation of cultured cells was carried out according to a method called the E-SCREEN assay as described in Ana M. Soto et al. (Environ. Health Perspect. 103:113-122(1995)). Briefly, 4.0 x 10^3 of human breast cancer-derived MCF-7 cells in a volume of 100 µL were seeded into each well of a 96-well plate. The plate was incubated overnight. BisA or a combination of BisA and n-octyl gallate was then added thereto. A well without the addition was used as a control. The cells were further cultured for 4 days in a medium, Dulbecco's modified Eagle medium without Phenol Red supplemented with 5% FCS treated with activated carbon-dextran. The MTT method was used to measured the cell numbers.
# [6] = BisA 40 mg/kg subcutaneous + n-octyl gallate 5 mg/kg oral
# [7] = BisA 40 mg/kg subcutaneous + n-octyl gallate 25 mg/kg oral
# [8] = NP 50 mg/kg oral + n-octyl gallate 25 mg/kg oral
# [9] = NP 50 mg/kg oral + n-octyl gallate 126 mg/kg oral
# [10] = BisA 40 mg/kg oral + n-octyl gallate 25 mg/kg oral
# [11] = BisA 40 mg/kg oral + n-octyl gallate 126 mg/kg oral
smiles,measurement,setting,value
"CCCCCCCCOC(=O)c1cc(O)c(O)c(O)c1 [n-octyl gallate, gallic acid n-octyl ester]",Uterine weight,female SD rat [1]; [6],48.3 ± 1.5 mg
same,Uterine weight,female SD rat [1]; [7],42.1 ± 1.9 mg
same,Ratio,female SD rat [1]; [6],117%
same,Ratio,female SD rat [1]; [7],102%
same,Uterine weight,female SD rat [2]; [8],40.4 ± 3.6 mg
same,Uterine weight,female SD rat [2]; [9],38.6 ± 2.4 mg
same,Ratio,female SD rat [2]; [8],122%
same,Ratio,female SD rat [2]; [9],117%
same,IC50,[3],3.38 µM
same,Uterine weight,female SD rat [4]; [10],32.7 ± 3.5 mg
same,Uterine weight,female SD rat [4]; [11],32.9 ± 3.6 mg
same,Ratio,female SD rat [4]; [10],108%
same,Ratio,female SD rat [4]; [11],108%
same,Relative rate of increase in cell number,"[5]; BisA + n-octyl gallate, MCF-7, 4 days culture, control = 100",91%
same,suppression of the proliferation of the cells (in words),"[5]; BisA and n-octyl gallate added, MCF-7",suppressed to a degree almost the same as that of the control
